Compound	melting point [°C]
Cc1c(C(F)(F)C(F)(F)C(F)(F)F)ncn1-c1ncc(C(F)(F)F)cc1Cl	62.5
CC(=O)C1CCC2C3CCC4=CC(=O)C=CC4(C)C3CCC12C (centres undefined)	183 to 185
CC(C)(C)c1cc(CCC(=O)O)n(Cc2ccc(C(F)(F)F)cc2Cl)n1	128 to 129
O=c1oc2c(c(O)c1-c1ccc(F)cc1)CCCC2	272
CC(C)Cc1cc(C(N)=O)nn1C	118 to 120
COC(=O)c1cc(C(=O)N(C)CC(=O)N(C)C)c2cc(Cc3ccc(F)cc3)cnc2c1O	99 to 100
CC1(C)Oc2ccc(S(=O)(=O)c3cccc(O)c3)cc2[C@@H](Nc2ccnc(Cl)n2)[C@]1(C)O	> 280
CCn1c(Cc2ccc(C)cc2)nnc1[C@@H](C)NS(=O)(=O)c1ccc(Cl)c(Cl)c1	189 to 191
O=C(Oc1ccccc1OC(=O)c1cc(O)c(O)c(O)c1)c1cc(O)c(O)c(O)c1	210
Cc1nc(Cc2ccc(NC(=O)/C=C/c3cnn(C)c3-c3ccc(F)cc3)cc2)no1	183 to 184
CC(O)c1ccc(C2(C(C)(C)C)OCCO2)cc1 (centres undefined)	67 to 70
Cn1cc(C2=C(c3cn(C4CN(C(c5ccccc5)c5ccccc5)C4)c4ccccc34)C(=O)NC2=O)c2ccccc21	102 to 105
Cc1ccc(C(=O)Oc2ccc(C(CN(C)C)C3(O)CCCCC3)cc2)cc1 (centres undefined)	159 to 162
CCCOc1cc(CCCOc2c(CC(=O)O)cccc2OC)n(Cc2ccc(F)cc2F)n1	77 to 80
C=CC(=O)OCCCCCCOc1ccc(C(=O)OCCOCC2(c3ccccc3)C=CC=CC2C=Cc2ccc(OCCCCCC)cc2)cc1 (centres undefined)	87
C[C@H](O)[C@@H](Nc1ccc(C#N)c(Cl)c1Cl)c1nnc(-c2ccccc2)o1	156
CCCCC(O)(c1cn(C(c2ccccc2)(c2ccccc2)c2ccccc2)cn1)c1cc(Cl)cc2c1OC(C)(C)OC2 (centres undefined)	124
COC(=O)CNC(=O)NCCCCC1CCSS1 (centres undefined)	62 to 64
CN(CCOc1ccc(OC(F)(F)F)cc1)C1CCN(c2ccc(OC[C@@]3(C)Cn4cc([N+](=O)[O-])nc4O3)cc2)CC1	186 to 188
COc1ccc(C2C(N=[N+]=[N-])C(=O)N2c2ccc(C(=O)O)cc2)cc1 (centres undefined)	127 to 129
Cc1ccc(CCCO)c(NCc2ccc3nc(NCCCN4CCOCC4)n(Cc4cccc5c4ncn5C)c3c2)c1	198

Compound	melting point [°C]
CC(C)=CCCC(C)=CCCC(C)=CCCC(C)=CC=C1SC(=S)N(CC(=O)O)C1=O	35 to 37
CN1CCN(C(=O)Cn2c(=O)sc3ncc(Cl)cc32)CC1	198 to 200
Cc1cccc2c1N(CC(=O)c1ccccc1[N+](=O)[O-])C(=O)C(NC(=O)Nc1cccc(-c3nnn[nH]3)c1)N=C2c1ccccc1F (centres undefined)	192 to 197
CCCCCCCCCCCCCCCCCCOc1cc(C(=O)OC)cc(C(=O)N(CC(=O)OCC)CC(=O)OCC)c1	57 to 60
CCCCCCCc1cnc(-c2ccc(C(=O)Oc3ccc(-c4ncc(CCCCC)cn4)cc3)cc2)nc1	97
O=C(CBr)Nc1cc(F)c(F)cc1C(=O)O	177 to 180
Cn1ccc(=O)c2ccc(F)cc21	146 to 149
COc1cc(-c2ccc(N3CCCN(c4ccc(-c5cc(OC)c(O)c(OC)c5)cn4)CC3)nc2)cc(OC)c1O	200 to 202
O=C1C=CC(Br)N(CCl)N1 (centres undefined)	90
CON(C)C(=O)NN(C(=O)Cl)c1cccc2c1OC(C)C2 (centres undefined)	91 to 93
CC1(C)CCC(C)(C)c2cc(-c3cc(C=CC(=O)O)ccc3O)c(OCc3ccc(Cl)cc3)cc21	147 to 149
CCOC(=O)c1nn(C)cc1C(F)F	30 to 31
CCCCCCCCCCCCOc1cc(N)c(OCCCCCCCCCCCC)cc1N	75 to 76
NCC1Cc2cc3c(cc2O1)CCCC3 (centres undefined)	> 225
CN1CC(c2ccc(Nc3cc(-c4cccc(N5Cc6cc(C(C)(C)C)ccc6C5=O)c4CO)cn(C)c3=O)nc2)C1	201 to 202
COc1ccc(C(=O)CCCCCN2CCC(CNC(=O)c3cc(Cl)c(N)cc3OC)CC2)cc1	133 to 135
COc1cc(C2CC(=O)NC(=O)C2)cc2c(C)c(C)oc12	220 to 222
ON=c1cc(-c2cc3sccc3cn2)oc2ccc(OCCc3ccc(F)cc3)cc12	228 to 234
O=c1[nH]cc(-c2ccncc2)cc1[N+](=O)[O-]	258 to 260
ClC(Cl)(Cl)c1nnc(C=Cc2ccc(C=Cc3ccccc3)cc2)o1	176 to 178

Second part, the molecule after the results:

melting point [°C]	Compound
187 to 190	O=C(O)C1Cc2c(ncn2Cc2ccccc2O)CN1C(=O)C(c1ccccc1)c1ccccc1 (centres undefined)
40 to 43	CCCCCCCCCCOc1ccc(O)c(C(=O)OC)c1
284 to 287	Cc1nc2c(N)nc3ccccc3c2n1CC(C)(C)C(N)=O
188 to 190	Cn1c2ccc(C=O)cc2c2sc3ccccc3c21
86 to 90	N#CCCNC(=O)Sc1ccccc1
> 300	CC1COc2c(N3Cc4ccccc4C3)c(F)cc3c(=O)c(C(=O)O)cn1c23 (centres undefined)
116	O=C(C=Cc1ccc(Oc2ccccc2)cc1)c1ccc(F)cc1
114 to 116	COc1cc(CCl)c(CCl)cc1OCc1ccccc1
107 to 108	CCCn1c2cc(Cl)ccc2c(=O)c2cccn21
101 to 102	CNC(=O)C(=NOC)c1ccccc1COc1ncc(C(=O)OC(C)C)cc1C
146	COC(=O)C1Cc2c([nH]c3ccccc23)C(c2cccc(OC)c2)N1 (centres undefined)
104 to 108	CC(F)(F)c1cccc(-n2cnc(CO)c2)c1
109 to 110	COC(=O)CC(=O)c1cnccn1
328 to 332	O=c1c(-c2ccccc2)c[nH]nc1-c1ccccc1
116	CC(C)c1[nH]c2ccccc2c1Sc1ccc(O)cc1
104 to 107	CC(C#N)(Sc1nc2ccccc2s1)c1ccc(C(=O)c2cccs2)cc1 (centres undefined)
227 to 228	N#Cc1cc(-c2c(C(N)=O)ccn2-c2ccc(F)cc2)ccc1OCC(F)(F)F
162 to 167	CC(=O)Nc1cc(CN(C)C)c2ncc(C#N)c(Nc3cccc(Br)c3)c2c1
120	Cc1oc(-c2ccccc2)nc1CCOc1ccc(CC(C(=O)O)c2nc(-c3ccccc3)oc2C)cc1 (centres undefined)
123	Cc1cc(Cl)cc(C(=O)Nc2cccc(F)c2)n1
151 to 154	C[C@H](Nc1ncnc2[nH]cnc12)c1oc2ccc(Br)cc2c(=O)c1-c1ccccc1
87	c1ccc2c(c1)CSO2
155 to 157	COc1ccccc1CCC1CCCCn2c1nc(-c1ccncn1)cc2=O (racemic)
146 to 148	NC(=O)C1=NN(c2cccc(COCC(F)(F)C(F)(F)F)c2)C(c2ccccc2)N1 (centres undefined)
86	CCC(C)N(C)C(=O)c1cc(-c2ccccc2F)c2ccccc2n1 (centres undefined)
278 to 280	O=C(O)c1nc2cc(N3CCN(Cc4ccccc4)CC3)c([N+](=O)[O-])cc2[nH]c1=O
144 to 146	O=C(NC(=O)N1C(=O)Cc2ccccc21)C1CCCCC1
55 to 57	Cc1ccc(Cl)cc1C(=O)CO

— a melting point compilation (Tetko et al.; mined from patent text by program, amines drawn as free bases though some values may be those of a salt)
